# Results as given in patent US20210171948A1, “COMPOSITIONS AND METHODS FOR TARGETING GLYPICAN-2 IN THE TREATMENT OF CANCER” (Shepherd Therapeutics, Inc., priority 2019, published 2021).
# Like-named read-outs stand apart in the source and are kept apart here. Strand notation (5' to 3'): a small letter for the sugar, then the base; units joined by * are phosphorothioate-linked, units joined directly phosphodiester-linked; [ ] holds rarer units or linkages, { } end groups; capitals alone tell only the bases. d = 2'-deoxy (DNA); r = 2'-OH (RNA)
# How the values were obtained:
# Assay type in all cases: cell-based
# [1] = system: TOV112D cells; assay: Cell viability after siRNA transfection, Cell Titer Glo 2.0 (Example 3)
# Experimental: (§1) GPC2 mRNA knockdown and changes in cell viability were assessed in multiple cancer cell lines. Cells were transfected with either a scrambled control siRNA or with GPC2 siRNA sequence 3 or sequence 5 from Table 7 using the RNAiMAX Lipofectamine kit (Invitrogen, Carlsbad, Calif.) as previously described in Example 2, either in 96 well format (for viability assays) or 6 well format (for knockdown assessment). Following a 96 hour incubation period, cells were washed and the viability measurement was assessed using Cell Titer Glo 2.0. Total RNA was isolated from the 6 well plate samples to determine knockdown efficiency.
# [2] = system: RH41 cells; assay: as above
# Experimental: as §1
# [3] = system: TC32 cells; assay: as above
# Experimental: as §1
# [4] = system: SKNAS cells; assay: as above
# Experimental: as §1
# [5] = system: IMR32 cells; assay: as above
# Experimental: as §1
# [6] = system: SNU16 cells; assay: as above
# Experimental: as §1
# [7] = system: COV362 cells; assay: as above; conditions: COV362 (Ovarian Carcinoma); 96 hour incubation
# Experimental: as §1
# [8] = system: RH30 cells; assay: as above
# Experimental: as §1
# [9] = system: TC71 cells; assay: as above
# Experimental: as §1
# [10] = system: CHP212 cells; assay: as above
# Experimental: as §1
# [11] = system: MCF7 cells; assay: as above
# Experimental: as §1
# [12] = system: GIST-T1 cells; assay: as above
# Experimental: as §1
# [13] = system: SKNAS cells; assay: Carboplatin IC50 in siRNA-transfected cells, Cell Titer Glo 2.0 viability (Example 6); conditions: for Data Summary: effect of knockdown on sensitivity to carboplatin: SKNAS; for IC50: SKNAS cells transfected with the labelled siRNA, carboplatin added 24 hours post transfection, 72 hour incubation
# Experimental: (§2) GPC2 mRNA expression was reduced using the indicated siRNAs and changes in cell viability were assessed in multiple neuroblastoma cell lines. Cells were transfected with either a control siRNA or with GPC2 siRNA sequences 3, 5 or 7 from Table 7 using the RNAiMAX Lipofectamine kit (Invitrogen, Carlsbad, Calif.) as previously described in 96 wells for viability assays. Carboplatin was added at increasing concentrations (0 to 150 uM) to transfected cells at 24 hours post transfection. Following a 72 hour incubation period, viability measurements were made using Cell Titer Glo 2.0.
# [14] = system: CHLA-136 cells; assay: as above; conditions: for Data Summary: effect of knockdown on sensitivity to carboplatin: CHLA-136; for IC50: CHLA-136 cells transfected with the labelled siRNA, carboplatin added 24 hours post transfection, 72 hour incubation
# Experimental: as §2
# [15] = system: KELLY cells; assay: as above; conditions: for IC50: KELLY cells transfected with the labelled siRNA, carboplatin added 24 hours post transfection, 72 hour incubation
# Experimental: as §2
# [16] = system: CHLA-172 cells; assay: as above; conditions: for Data Summary: effect of knockdown on sensitivity to carboplatin: CHLA-172; for IC50: CHLA-172 cells transfected with the labelled siRNA, carboplatin added 24 hours post transfection, 72 hour incubation
# Experimental: as §2
# [17] = system: TOV112D cells; assay: Cisplatin IC50 in siRNA-transfected cells, Cell Titer Glo 2.0 viability (Example 5); conditions: for Data Summary: effect of knockdown on sensitivity to cisplatin: TOV112D; for IC50: TOV112D cells transfected with the labelled siRNA, cisplatin added 24 hours post transfection, 72 hour incubation
# Experimental: (§3) GPC2 mRNA was reduced using the indicated siRNAs and changes in cell viability were assessed in multiple cancer cell lines, in combination with Cisplatin treatment. Cells were transfected with either a scrambled control siRNA or with GPC2 siRNA sequences 3 or 5 from Table 7 using the RNAiMAX Lipofectamine kit (Invitrogen, Carlsbad, Calif.), as previously described, in either in 96 well (for viability assays) or 6 well format (for total RNA). Cisplatin was added at increasing concentrations (0 to 30 uM) to transfected cells at 24 hours post transfection. Following a 72 hour incubation period, cell viability was measured using Cell Titer Glo 2.0. Total RNA samples were also isolated to measure knockdown efficiency.
# [18] = system: CHLA-90 cells; assay: as above; conditions: for Data Summary: effect of knockdown on sensitivity to cisplatin: CHLA-90; for IC50: CHLA-90 cells transfected with the labelled siRNA, cisplatin added 24 hours post transfection, 72 hour incubation
# Experimental: as §3
# [19] = system: SNU16 cells; assay: as above; conditions: for Data Summary: effect of knockdown on sensitivity to cisplatin: SNU16; for IC50: SNU16 cells transfected with the labelled siRNA, cisplatin added 24 hours post transfection, 72 hour incubation
# Experimental: as §3
# [20] = system: CHLA-136 cells; assay: as above; conditions: for Data Summary: effect of knockdown on sensitivity to cisplatin: CHLA-136; for IC50: CHLA-136 cells transfected with the labelled siRNA, cisplatin added 24 hours post transfection, 72 hour incubation
# Experimental: as §3
# [21] = system: COV362 cells; assay: as above; conditions: for Data Summary: effect of knockdown on sensitivity to cisplatin: COV362; for IC50: COV362 cells transfected with the labelled siRNA, cisplatin added 24 hours post transfection, 72 hour incubation
# Experimental: as §3
# [22] = system: SH-SY5Y cells; assay: as above; conditions: for IC50: SH-SY5Y cells transfected with the labelled siRNA, cisplatin added 24 hours post transfection, 72 hour incubation
# Experimental: as §3
# [23] = system: CHLA-172 cells; assay: as above; conditions: for Data Summary: effect of knockdown on sensitivity to cisplatin: CHLA-172; for IC50: CHLA-172 cells transfected with the labelled siRNA, cisplatin added 24 hours post transfection, 72 hour incubation
# Experimental: as §3
# [24] = system: CHP212 cells; assay: as above; conditions: for Data Summary: effect of knockdown on sensitivity to cisplatin: CHP212; for IC50: CHP212 cells transfected with the labelled siRNA, cisplatin added 24 hours post transfection, 72 hour incubation
# Experimental: as §3
# [25] = system: GIST-T1 cells; assay: as above; conditions: for IC50: GIST-T1 cells transfected with the labelled siRNA, cisplatin added 24 hours post transfection, 72 hour incubation
# Experimental: as §3
# [26] = system: spheroids from CHP212, SKNAS, SK-N-BE2 and CHLA90 neuroblastoma cells; assay: Viability of established spheroid cultures after siRNA transfection (Example 11); conditions: 96 hour following transfection; where GPC2 knockdown was observed (FIG. 7B)
# Experimental: The effect of siRNA mediated GPC2 mRNA knockdown was also assessed on established spheroid cultures. Spheroids were established by seeding cells in low attachment plates and culturing for 96 hours. Spheroids were transfected with either a scrambled control siRNA or with GPC2 siRNA of sequence 5 or 7 from Table 7, using the RNAiMAX Lipofectamine kit (Invitrogen, Carlsbad, Calif.) as previously described. At the 96 hour time point following transfection, the degree of GPC2 mRNA knockdown (FIG. 7A) as well as spheroid viability (FIG. 7B) was measured.
Substance,% Viability [7],Data Summary: effect of knockdown on sensitivity to carboplatin [13],IC50 [13],Data Summary: effect of knockdown on sensitivity to carboplatin [14],IC50 [14],IC50 [15],Data Summary: effect of knockdown on sensitivity to carboplatin [16],IC50 [16],Data Summary: effect of knockdown on sensitivity to cisplatin [17],IC50 [17],Data Summary: effect of knockdown on sensitivity to cisplatin [18],IC50 [18],Data Summary: effect of knockdown on sensitivity to cisplatin [19],IC50 [19],Data Summary: effect of knockdown on sensitivity to cisplatin [20],IC50 [20],Data Summary: effect of knockdown on sensitivity to cisplatin [21],IC50 [21],IC50 [22],Data Summary: effect of knockdown on sensitivity to cisplatin [23],further results
"GPC2 siRNA 3: siRNA duplex: sense CCUGCUUGGACCUCGAUAA[dT][dT] (SEQ ID NO: 207), anti-sense UUAUCGAGGUCCAAGCAGG[dT][dT] (SEQ ID NO: 208) (sense CCUGCUUGGACCUCGAUAANN; antisense UUAUCGAGGUCCAAGCAGGNN; 3' dTdT overhangs, chemistry not fully specified; listed as Homo sapiens)",102.76%,increases sensitivity to,40 µM,not increase sensitivity,47 µM,12 µM,increases sensitivity to,100 µM,does not increase,5 µM,increases sensitivity to,15 µM,does not increase,16 µM,increases sensitivity to,11 µM,does not increase,6.4 µM,17.6 µM,does not increase,% Viability [1]: 152.77%; % Viability [2]: 131.49%; % Viability [3]: 78.24%; % Viability [4]: 84.58%; % Viability [5]: 89.05%; % Viability [6]: 92.74%; % Viability [8]: 79.02%; % Viability [9]: 102.39%; % Viability [10]: 70.18%; % Viability [11]: 79.67%; % Viability [12]: 70.87%; IC50 [23]: 16 µM; Data Summary: effect of knockdown on sensitivity to cisplatin [24]: increases sensitivity to; IC50 [24]: 7.4 µM; IC50 [25]: 13 µM
"GPC2 siRNA 5: siRNA duplex: sense CUCAGUAGCCCAGCACUCU[dT][dT] (SEQ ID NO: 211), anti-sense AGAGUGCUGGGCUACUGAG[dT][dT] (SEQ ID NO: 212) (sense CUCAGUAGCCCAGCACUCUTT; antisense AGAGUGCUGGGCUACUGAGTT; sugars from the 5' end r19 d2, backbone not given here; listed as Homo sapiens)",94.27%,increases sensitivity to,15.3 µM,not increase sensitivity,36 µM,9 µM,increases sensitivity to,100 µM,does not increase,7 µM,increases sensitivity to,15 µM,does not increase,16 µM,increases sensitivity to,6 µM,does not increase,18 µM,9.3 µM,does not increase,"% Viability ([1]; TOV112D (Ovarian Carcinoma), 96 hour incubation): 81.15%; % Viability ([2]; RH41 (Rhabdomyosarcoma), 96 hour incubation): 31.32%; % Viability ([3]; TC32 (Ewing's Sarcoma), 96 hour incubation): 77.18%; % Viability ([4]; SKNAS (Neuroblastoma), 96 hour incubation): 56.14%; % Viability ([5]; IMR32 (Neuroblastoma), 96 hour incubation): 63.62%; % Viability ([6]; SNU16 (Gastric), 96 hour incubation): 89.01%; % Viability ([8]; RH30 (Rhabdomyosarcoma), 96 hour incubation): 46.03%; % Viability ([9]; TC71 (Ewing's Sarcoma), 96 hour incubation): 100.92%; % Viability ([10]; CHP212 (Neuroblastoma), 96 hour incubation): 64.46%; % Viability ([11]; MCF7 (Breast), 96 hour incubation): 67.11%; % Viability ([12]; GIST-T1 (Gastrointestinal Stromal), 96 hour incubation): 40.13%; Data Summary: effect of knockdown on sensitivity to carboplatin ([15]; KELLY): KD with sequence 5 increases; Viability of established spheroids [26]: a decrease in spheroid viability was also seen; Data Summary: effect of knockdown on sensitivity to cisplatin ([22]; SH-SY5Y): increases sensitivity to; IC50 [23]: 17 µM; Data Summary: effect of knockdown on sensitivity to cisplatin [24]: increases sensitivity to; IC50 [24]: 6 µM; Data Summary: effect of knockdown on sensitivity to cisplatin ([25]; GIST-T1): increases sensitivity to; IC50 [25]: 1 µM"
"GPC2 siRNA 7: siRNA duplex: sense CUCCUUUCUGGUUCACACA[dT][dT] (SEQ ID NO: 215), anti-sense UGUGUGAACCAGAAAGGAG[dT][dT] (SEQ ID NO: 216) (sense rCrUrCrCrUrUrUrCrUrGrGrUrUrCrArCrArCrAdTdT; antisense rUrGrUrGrUrGrArArCrCrArGrArArArGrGrArGdTdT; listed as Homo sapiens)",,,,,,,,,,,,,,,,,,,,,Viability of established spheroids [26]: a decrease in spheroid viability was also seen
